pIC50: −log10 of the molar value.
Tests used:
[1] = tested on: egg white-induced rat paw edema; assay: Egg white-induced rat paw edema, plethysmometry; type: in vivo, Wistar rats; settings: for Average Paw Size ± SD / Average Rise in Paw Volume ± SD: n = 3; for % inhibition of paw volume: oral, 1 h before egg white, formula F 250 mg/mL at 1 mL/100 g bw, ASP 100 mg/kg
Experimental: Of the many methods used in screening for the anti-inflammatory effects of various drugs, the most commonly used is the method of highlighting the inhibitory effect of edema produced in the hind paw of a rat after the injection of an inflammatory product. We used whole, fresh egg white, which, due to its inflammation being maintained for a relatively short period of time, is optimal for observation. The effect was measured by the computerized plethysmometric method, the method unanimously and currently used in testing systemic anti-inflammatory effects.
The increases in the volume of the inflamed extremity at 30, 60, 120 and 180 min were expressed as a percentages compared with the volumes measured […] injection of the irritant (Table 3). The mean values of the measured volumes for each animal and the times of measurement were calculated, as were ± standard deviations, followed by the mean values per batch (Table 4). The differences between the averages of the values obtained in the treated groups and those of the control groups (with or without treatment), were calculated for each measurement moment and the anti-inflammatory indexes were evaluated.
The anti-inflammatory effect of plant extracts was evaluated by rat paw edema assay. Wistar rats, of both sexes, weighing 150–200 g provided by the Cantacuzino Institute Biobase were used for the study. Lots of equal numbers of animals (n = 3) were established for each test sample or reference product. The animals were checked at the reception and kept for a period of 7 days for acclimatization, with observation of the clinical condition, behavior and food consumption. They were weighed at the reception and after the acclimatization period, with the selection for testing of animals with weight variations less than 10% of the initial weight. The animals were housed in appropriate cages, in small groups of the same sex. The temperature of the experimental chamber was 22 ± 2 °C and the relative humidity was 50–60%. The lighting was artificial, alternately 12-h light and 12-h dark. The animals received standardized food and water ad libitum. Twelve hours before the test, they were kept at the post and allowed access to water. The measurement of the inflamed segments volumes and their subsequent evolution was performed with the help of a U40 Basile-Italy computerized plethysmometer 7140 and the CUB dedicated software program for data acquisition and storage. The test samples and the reference substance were administered orally by intragastric gavage 1 h before the injection of the inflammatory substance (whole, fresh egg white).
The animals were injected subcutaneously with a volume of 0.1 mL of the inflammatory agent on the plantar surface of the right hind limb.
The volume of the right hind limb was measured plethysometrically prior to injection with the inflammatory agent, which represented the “0” moment of the measurements. The volume of the extremity was measured repeatedly, at 30, 60, 120 and 180 min.
In order to perform the readings, the inflamed extremity was visually marked at the level of the lateral ankle, then it was introduced into the immersion liquid of the measuring cell of the device to this level, with the performance of three measurements for each animal and for each moment, established according to the working protocol, with data storage facilitated by the plethysmometer software. The samples were administered orally by intragastric gavage, as such, at a volume of 1 mL/100 g of bw. Powder samples, after suspension with Tween 80, were administered at a concentration of 250 mg/mL, at 1 mL/100 g of bw.
The reference product (acetylsalicylic acid/aspirin) (Zentiva, Bucharest, Romania) was administered in the same way, in the form of a suspension in two doses of 100 mg/kg of bw at a volume of 1 mL/100 g of bw.

paw edema = settings: cited from earlier work
NO = settings: cited from earlier work

Compound: CC(=O)Oc1ccccc1C(=O)O [ASP 100, acetylsalicylic acid]
- Average Paw Size ± SD ([1]; 0 min (prior to injection)): 1.744 ± 0.297 mL
- anti-inflammatory effect over the observation period ([1]; 30–180 min): anti-inflammatory effect that was induced early
- Average Paw Size ± SD ([1]; 30 min): 2.489 ± 0.241 mL
- Average Rise in Paw Volume ± SD ([1]; 30 min): 0.745 ± 0.056 mL
- Average Paw Size ± SD ([1]; 60 min): 2.318 ± 0.161 mL
- Average Rise in Paw Volume ± SD ([1]; 60 min): 0.574 ± 0.136 mL
- % inhibition of paw volume ([1]; 60 min): 58.20%
- Average Paw Size ± SD ([1]; 120 min): 2.216 ± 0.197 mL
- Average Rise in Paw Volume ± SD ([1]; 120 min): 0.472 ± 0.1 mL
- % inhibition of paw volume ([1]; 120 min): 64.25%
- Average Paw Size ± SD ([1]; 180 min): 2.211 ± 0.263 mL
- Average Rise in Paw Volume ± SD ([1]; 180 min): 0.467 ± 0.034 mL
- inhibitory action on paw edema (paw edema; third hour, 200 mg/kg, p < 0.05): 31.87%

Compound: CC(C)c1cc2c(c(O)c1O)[C@@]1(C(=O)O)CCCC(C)(C)[C@@H]1CC2 [Carnosic acid]
- concentration that inhibits NO completely (NO): > 12.5 µg/mL

Compound: CC(C)c1cc2c(c(O)c1O)[C@@]13CCCC(C)(C)[C@@H]1C[C@@H]2OC3=O [carnosol]
- pIC50 (NO; read-out: IC50 NO inhibition): 5.03

Compound: O=C(/C=C/c1ccc(O)c(O)c1)O[C@H](Cc1ccc(O)c(O)c1)C(=O)O [rosmarinic acid]
- reduction of paw edema (paw edema; dose of 25 mg/kg, after 6 hrs): over 60%
